Results published in article PMC10023664, “Hiat1 as a new transporter involved in ammonia regulation” (Scientific Reports, 2023).

Test system: Carcinus maenas Hiat1 (CmHiat1)
Settings: 0.5-20 mM NH4Cl in OR2 bath; room temperature; net flux of whole oocyte, not sham-subtracted (endogenous NH4+ uptake present)

## N [NH4^+]
  Km: 2300 µM
